Test results from the supplement of paper PMC10307832.

How the values were obtained:
Experiment in all cases: relative viability (nuclei count vs DMSO), 5 days (fraction); higher = more cells survive
Dasatinib + Olaparib = compound: Cc1nc(Nc2ncc(C(=O)Nc3c(C)cccc3Cl)s2)cc(N2CCN(CCO)CC2)n1 [Dasatinib] + O=C(c1cc(Cc2n[nH]c(=O)c3ccccc23)ccc1F)N1CCN(C(=O)C2CC2)CC1 [Olaparib] (partner 8 µM)
In short: (§1)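 Dosing by pin tool came one day after lung cancer cell lines were seeded in 1536-well plates, using either one drug or a fixed anchor-drug dose plus five library-drug doses (not always all listed) in √10 steps. After 5 days, nuclei were counted on 4× images. Relative viability is treated-well nuclei count divided by vehicle-well nuclei count, and values are medians of duplicate plates.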

ALW-II-49-7 + Decitabine = compound: Cc1ccc(C(=O)Nc2cccc(C(F)(F)F)c2)cc1Nc1cncc(C(N)=O)c1 [ALW-II-49-7] + Nc1ncn([C@H]2C[C@H](O)[C@@H](CO)O2)c(=O)n1 [Decitabine] (partner 2 µM)
In short: as §1

Dasatinib + Alpelisib = compound: Cc1nc(Nc2ncc(C(=O)Nc3c(C)cccc3Cl)s2)cc(N2CCN(CCO)CC2)n1 [Dasatinib] + Cc1nc(NC(=O)N2CCC[C@H]2C(N)=O)sc1-c1ccnc(C(C)(C)C(F)(F)F)c1 [Alpelisib] (partner 2 µM)
In short: as §1

ALW-II-49-7 + Olaparib = compound: Cc1ccc(C(=O)Nc2cccc(C(F)(F)F)c2)cc1Nc1cncc(C(N)=O)c1 [ALW-II-49-7] + O=C(c1cc(Cc2n[nH]c(=O)c3ccccc23)ccc1F)N1CCN(C(=O)C2CC2)CC1 [Olaparib] (partner 8 µM)
In short: as §1

Cell Line	relative viability (Dasatinib + Olaparib; first compound 0.005 µM)	relative viability (Dasatinib + Olaparib; first compound 0.01581 µM)	relative viability (Dasatinib + Olaparib; first compound 0.05 µM)	relative viability (Dasatinib + Olaparib; first compound 0.1581 µM)	relative viability (Dasatinib + Olaparib; first compound 0.5 µM)	relative viability (ALW-II-49-7 + Decitabine; first compound 0.08 µM)	relative viability (ALW-II-49-7 + Decitabine; first compound 0.253 µM)	relative viability (ALW-II-49-7 + Decitabine; first compound 0.8 µM)	relative viability (ALW-II-49-7 + Decitabine; first compound 2.53 µM)	relative viability (ALW-II-49-7 + Decitabine; first compound 8 µM)	relative viability (Dasatinib + Alpelisib; first compound 0.005 µM)	relative viability (Dasatinib + Alpelisib; first compound 0.01581 µM)	relative viability (Dasatinib + Alpelisib; first compound 0.05 µM)	relative viability (Dasatinib + Alpelisib; first compound 0.1581 µM)	relative viability (Dasatinib + Alpelisib; first compound 0.5 µM)	relative viability (ALW-II-49-7 + Olaparib; first compound 0.08 µM)	relative viability (ALW-II-49-7 + Olaparib; first compound 0.253 µM)	relative viability (ALW-II-49-7 + Olaparib; first compound 0.8 µM)	relative viability (ALW-II-49-7 + Olaparib; first compound 2.53 µM)	relative viability (ALW-II-49-7 + Olaparib; first compound 8 µM)
NCI-H23	0.359	0.301	0.307	0.297	0.282	0.311	0.286	0.303	0.328	0.333	0.597	0.549	0.615	0.403	0.323	0.328	0.363	0.383	0.294	0.298
NCI-H647	0.428	0.301	0.217	0.139	0.116	0.322	0.321	0.396	0.374	0.307	0.779	0.419	0.319	0.166	0.146	0.619	0.386	0.636	0.51	0.367
201T	0.783	0.753	0.707	0.636	0.445	0.832	0.84	0.872	0.846	0.904	0.95	0.922	0.845	0.654	0.338	0.846	0.844	0.844	0.873	0.69
NCI-H1734	0.601	0.479	0.509	0.367	0.196	0.492	0.53	0.527	0.584	0.574	0.553	0.477	0.469	0.346	0.278	0.57	0.628	0.596	0.46	0.558
NCI-H596	0.685	0.575	0.525	0.517	0.466	0.884	1.23	1.1	1.12	1.05	0.387	0.436	0.378	0.326	0.221	0.523	0.616	0.774	0.599	0.757
